The NIST ThermoML archive (doi:10.1016/j.tca.2013.09.023)
Numbers after ± are expanded uncertainties.

Assays:
[1] = Molar enthalpy of transition or fusion; conditions: DSC
[2] = DTA; for Normal melting temperature: Crystal

| Molar enthalpy of transition or fusion ([1]; Crystal) [kJ/mol] | Normal melting temperature [2] [°C] | Molar enthalpy of transition or fusion ([1]; Crystal 2) [kJ/mol] | Triple point temperature ([2]; Crystal 2) [K] | Glass transition temperature ([2]; Glass) [°C] | SMILES |
| --- | --- | --- | --- | --- | --- |
| 29 ± 1 | 78.00 ± 2 |  |  |  | CCCCn1cc[n+](C)c1.[Br-] [1-butyl-3-methylimidazolium bromide] |
| 18 ± 1 | 74.00 ± 2 | 2.7 ± 0.6 | 303.15 ± 2 |  | CCCCn1cc[n+](C)c1.[Cl-] [1-butyl-3-methylimidazolium chloride] |
|  |  |  |  | -70.00 ± 5 | CCCCn1cc[n+](C)c1.[I-] [1-butyl-3-methylimidazolium iodide] |
